Source: patent US9096832B2, “Differentiation of human embryonic stem cells” (LifeScan, Inc., priority 2007, dated 2015)

System: H9 embryonic stem cells
Assay: Microarray analysis of definitive endoderm stage cells on […] or MEFs +/- Wnt-3a (Table VI)
Type: cell-based, human
Conditions: low serum
Procedure: Controls for each group included cells plated on [sequence]—coated dishes and cultured in MEF-conditioned medium or cells plated on MEFs and cultured in ES medium. All groups contained three biological replicates and each biological replicate was repeated on two separate gene chips.
Sample preparation, hybridization, and image analysis were performed according to the Affymetrix Human Genome U133 Plus 2.0 Array. Following normalization and a log transformation, data analysis was performed using OmniViz® software (MA) and [sequence] […] Significant differences in gene expression between the samples were evaluated using analysis of variance and an F-test with adjusted P-value (Benjamini and Hochberg correction) of less-than or equal to 0.05. Only genes with a present call in at least one group were included in the analysis.

For “Activin A: activin A (a member of the TGFβ superfamily), R&D Systems; 'w/o wnt' in Table VII = 100 ng/ml Activin A without Wnt3a”, the “Intensity (log): neuropilin 1” value (on MATRIGEL) was −1.623, the “Intensity (log): noggin” value (on MATRIGEL) was −1.636 and the “Intensity (log): splicing factor, arginine serine-rich 5” value (on MATRIGEL) was 0.7481. The “Intensity (log): stanniocalcin 1” value (on MATRIGEL) was 2.411, the “Intensity (log): ESTs” value (on MATRIGEL, r13) was −4.827 and the “Intensity (log): ESTs” value (on MATRIGEL, r16) was −3.437. For the same substance, the “Intensity (log): solute carrier family 16 (monocarboxylic acid transporters), member 3” value (on MATRIGEL, r20) was −0.06641, the “Intensity (log): Homo sapiens solute carrier family 16 (monocarboxylic acid transporters), member 3 (SLC16A3), mRNA” value (on MATRIGEL, r30) was 0.7103 and the “Intensity (log): ESTs” value (on MATRIGEL, r49) was −0.04716. For the same substance, the “Intensity (log): glycophorin B (includes Ss blood group)” value (on MATRIGEL, r50) was −2.852, the “Intensity (log): ESTs” value (on MATRIGEL, r62) was −4.936 and the “Intensity (log): Homo sapiens HNF-3beta mRNA for hepatocyte nuclear factor-3 beta, complete cds” value (on MATRIGEL, r66) was −2.718. The “Intensity (log): ESTs” value (on MATRIGEL, r81) was −2.336, the “Intensity (log): ESTs” value (on MATRIGEL, r92) was −2.896 and the “Intensity (log): ESTs” value (on MATRIGEL, r98) was −3.098. The “Intensity (log): ESTs” value (on MATRIGEL, r108) was −1.401, the “Intensity (log): Homo sapiens phorbolin-like protein MDS019 (MDS019), mRNA” value (on MATRIGEL, r121) was −1.119 and the “Intensity (log): ESTs” value (on MATRIGEL, r129) was −1.555. The “Intensity (log): ESTs” value (on MATRIGEL, r136) was −0.7315, the “Intensity (log): ESTs” value (on MATRIGEL, r137) was −2.036 and the “Intensity (log): ESTs” value (on MATRIGEL, r142) was −0.6486. For the same substance, the “Intensity (log): ESTs” value (on MATRIGEL, r145) was −1.782, the “Intensity (log): Cluster Incl. AB028021: Homo sapiens HNF-3beta mRNA for hepatocyte nuclear factor-3 beta, complete cds” value (on MATRIGEL, r165) was −1.5339 and the “Intensity (log): hypothetical protein FLJ23403” value (on MATRIGEL, r205) was −1.456. For the same substance, the “Intensity (log): matrix metalloproteinase 14 (membrane-inserted)” value (on MATRIGEL, r215) was −2.057, the “Intensity (log): Homo sapiens glycophorin B (includes Ss blood group) (GYPB), mRNA” value (on MATRIGEL, r218) was −0.9473 and the “Intensity (log): ESTs” value (on MATRIGEL, r234) was 0.8128. The “Intensity (log): ESTs” value (on MATRIGEL, r240) was 1.068, the “Intensity (log): ESTs” value (on MATRIGEL, r241) was −1.412 and the “Intensity (log): KIAA0878 protein” value (on MATRIGEL, r250) was 1.1189. The “Intensity (log): ESTs” value (on MATRIGEL, r260) was 1.481, the “Intensity (log): Homo sapiens matrix metalloproteinase 14 (membrane-inserted) (MMP14), mRNA” value (on MATRIGEL, r270) was −0.7235 and the “Intensity (log): ESTs” value (on MATRIGEL, r278) was 0.5216. For the same substance, the “Intensity (log): ESTs” value (on MATRIGEL, r290) was 0.3072, the “Intensity (log): ESTs” value (on MATRIGEL, r301) was −3.574 and the “Intensity (log): ESTs” value (on MATRIGEL, r314) was −0.05909. For the same substance, the “Intensity (log): Homo sapiens hypothetical protein FLJ23403 (FLJ23403), mRNA” value (on MATRIGEL, r315) was −1.485, the “Intensity (log): ESTs” value (on MATRIGEL, r319) was −0.1824 and the “Intensity (log): Homo sapiens KIAA0878 protein (KIAA0878), mRNA” value (on MATRIGEL, r332) was 2.0265. The “Intensity (log): phorbolin-like protein MDS019” value (on MATRIGEL, r340) was −1.118, the “Intensity (log): ESTs” value (on MATRIGEL, r347) was 0.3539 and the “Intensity (log): ESTs” value (on MATRIGEL, r376) was −0.3497. The “Intensity (log): ESTs” value (on MATRIGEL, r377) was −0.9033, the “Intensity (log): 6-phosphofructo-2-kinasefructose-2,6-biphosphatase 4” value (on MEFS) was 1.6 and the “Intensity (log): ESTs, Highly similar to IHH_HUMAN INDIAN HEDGEHOG PROTEIN PRECURSOR (H. sapiens)” value (on MEFS) was 0.5905. The “Intensity (log): ESTs, Moderately similar to JE0284 Mm-1 cell derived transplantability-associated protein 1b (H. sapiens)” value (on MEFS) was 4.222, the “Intensity (log): ESTs, Weakly similar to FCE2 MOUSE LOW AFFINITY IMMUNOGLOBULIN EPSILON FC RECEPTOR (M. musculus)” value (on MEFS) was 3.48 and the “Intensity (log): ESTs, Weakly similar to the 331st table hypothetical protein KIAA0555 (H. sapiens)” value (on MEFS) was 0.4436. The “Intensity (log): G protein-coupled receptor” value (on MEFS) was 5.053, the “Intensity (log): G protein-coupled receptor 49” value (on MEFS) was 2.505 and the “Intensity (log): Homo sapiens Kell blood group (KEL), mRNA” value (on MEFS) was −0.3839. For the same substance, the “Intensity (log): Homo sapiens MLL septin-like fusion (MSF), mRNA” value (on MEFS) was −1.5, the “Intensity (log): Homo sapiens Mix-like homeobox protein 1 (MILD1) mRNA, complete cds” value (on MEFS) was 0.922 and the “Intensity (log): Homo sapiens Rho GTPase activating protein 6 (ARHGAP6), transcript variant 2, mRNA” value (on MEFS) was −1.285. For the same substance, the “Intensity (log): Homo sapiens TBX3-iso protein (TBX3-iso), mRNA” value (on MEFS) was 1.07, the “Intensity (log): Homo sapiens angiopoietin 2 (ANGPT2), mRNA” value (on MEFS) was 0.5968 and the “Intensity (log): Homo sapiens ankyrin-like with transmembrane domains 1 (ANKTM1), mRNA” value (on MEFS) was 2.819. For the same substance, the “Intensity (log): Homo sapiens apolipoprotein A-I (APOA1), mRNA” value (on MEFS) was 2.469, the “Intensity (log): Homo sapiens apolipoprotein A-II (APOA2), mRNA” value (on MEFS) was 4.469 and the “Intensity (log): Homo sapiens arylsulfatase E (chondrodysplasia punctata 1) (ARSE), mRNA” value (on MEFS) was 3.184. For the same substance, the “Intensity (log): Homo sapiens atrophin-1 interacting protein 1; activin receptor interacting protein 1 (KIAA0705), mRNA” value (on MEFS) was −1.32, the “Intensity (log): Homo sapiens beta-site APP cleaving enzyme (BACE) mRNA, complete cds” value (on MEFS) was 1.754 and the “Intensity (log): Homo sapiens cDNA FLJ11550 fis, clone HEMBA1002970” value (on MEFS) was 4.216. The “Intensity (log): Homo sapiens cDNA FLJ12993 fis, clone NT2RP3000197” value (on MEFS) was 2.069, the “Intensity (log): Homo sapiens cDNA FLJ13221 fis, clone NT2RP4002075” value (on MEFS) was 1.31 and the “Intensity (log): Homo sapiens cardiac ventricular troponin C mRNA, complete cds” value (on MEFS) was 1.4377. For the same substance, the “Intensity (log): Homo sapiens cartilage linking protein 1 (CRTL1), mRNA” value (on MEFS) was −0.8052, the “Intensity (log): Homo sapiens cell adhesion molecule with homology to L1CAM (close homologue of L1) (CHL1), mRNA” value (on MEFS) was −2.5002 and the “Intensity (log): Homo sapiens chromosome 19, cosmid R31181” value (on MEFS) was 0.2239. The “Intensity (log): Homo sapiens clone 23736 mRNA sequence” value (on MEFS) was 4.507, the “Intensity (log): Homo sapiens cryptic mRNA, complete cds” value (on MEFS) was −0.6735 and the “Intensity (log): Homo sapiens cystatin S (CST4), mRNA” value (on MEFS) was 3.87. The “Intensity (log): Homo sapiens cystatin SA (CST2), mRNA” value (on MEFS) was 2.1671, the “Intensity (log): Homo sapiens cystatin SN (CST1), mRNA” value (on MEFS) was 4.64 and the “Intensity (log): Homo sapiens cytidine deaminase (CDA), mRNA” value (on MEFS) was −1.67. The “Intensity (log): Homo sapiens dual specificity phosphatase 4 (DUSP4), mRNA” value (on MEFS) was 4.122, the “Intensity (log): Homo sapiens fibroblast growth factor 8 (androgen-induced) (FGF8), mRNA” value (on MEFS) was 0.01583 and the “Intensity (log): Homo sapiens fibroblast growth factor 17 (FGF17), mRNA” value (on MEFS) was 2.4872. For the same substance, the “Intensity (log): Homo sapiens frizzled-related protein (FRZB), mRNA” value (on MEFS) was 3.676, the “Intensity (log): Homo sapiens gastrin-releasing peptide (GRP), mRNA” value (on MEFS) was 0.5098 and the “Intensity (log): Homo sapiens glycophorin E (GYPE), mRNA” value (on MEFS) was −1.501. For the same substance, the “Intensity (log): Homo sapiens glycophorin Erik STA (GPErik) gene complete cds” value (on MEFS) was −0.4544, the “Intensity (log): Homo sapiens growth differentiation factor 3 (GDF3), mRNA” value (on MEFS) was 2.875 and the “Intensity (log): Homo sapiens haptoglobin (HP), mRNA” value (on MEFS) was 0.477.
